Results on three compounds are retold here after patent US10196386B2, “Compounds having muscarinic receptor antagonist and beta2 adrenergic receptor agonist activity” (priority 2016, dated 2019).

In one assay the target is T1, Human M3 receptor (Homo sapiens, UniProt P20309).
T1 construct: purchased Perkin Elmer
Kind of assay: biochemical. It counts as binding. The following applies: read-out: M3 Range.

The next assay concerns the target T2, Human β2 adrenoceptor (Homo sapiens, UniProt P07550).
T2 construct: purchased Perkin Elmer
Kind of assay: β2 adrenoceptor radioligand binding assay. An outline of the steps: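 Human β2 receptor membranes incubated 1 h at room temperature with 0.3 nM [125I]cyanopindolol and compound in pH 7.4 HEPES buffer (0.5% DMSO); 2 μM s-propranolol defined non-specific binding. Bound label counted after filtration; IC50 from competition curves, converted to Ki via Cheng–Prusoff.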

The structures appear in SMILES notation. Bounds are passed on as bounds.

T2 sequence (P07550 whole entry): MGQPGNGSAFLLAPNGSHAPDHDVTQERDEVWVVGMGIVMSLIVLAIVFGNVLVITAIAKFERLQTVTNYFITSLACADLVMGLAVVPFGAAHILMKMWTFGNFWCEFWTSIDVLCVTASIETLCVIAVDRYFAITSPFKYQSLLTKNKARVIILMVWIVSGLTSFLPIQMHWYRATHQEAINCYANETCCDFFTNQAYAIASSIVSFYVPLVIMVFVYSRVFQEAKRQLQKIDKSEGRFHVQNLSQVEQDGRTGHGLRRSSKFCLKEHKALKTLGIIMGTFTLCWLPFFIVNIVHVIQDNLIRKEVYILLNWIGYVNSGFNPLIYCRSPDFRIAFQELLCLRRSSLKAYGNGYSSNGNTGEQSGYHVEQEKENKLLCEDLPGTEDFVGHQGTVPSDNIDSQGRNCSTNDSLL
T1 sequence (P20309 whole entry): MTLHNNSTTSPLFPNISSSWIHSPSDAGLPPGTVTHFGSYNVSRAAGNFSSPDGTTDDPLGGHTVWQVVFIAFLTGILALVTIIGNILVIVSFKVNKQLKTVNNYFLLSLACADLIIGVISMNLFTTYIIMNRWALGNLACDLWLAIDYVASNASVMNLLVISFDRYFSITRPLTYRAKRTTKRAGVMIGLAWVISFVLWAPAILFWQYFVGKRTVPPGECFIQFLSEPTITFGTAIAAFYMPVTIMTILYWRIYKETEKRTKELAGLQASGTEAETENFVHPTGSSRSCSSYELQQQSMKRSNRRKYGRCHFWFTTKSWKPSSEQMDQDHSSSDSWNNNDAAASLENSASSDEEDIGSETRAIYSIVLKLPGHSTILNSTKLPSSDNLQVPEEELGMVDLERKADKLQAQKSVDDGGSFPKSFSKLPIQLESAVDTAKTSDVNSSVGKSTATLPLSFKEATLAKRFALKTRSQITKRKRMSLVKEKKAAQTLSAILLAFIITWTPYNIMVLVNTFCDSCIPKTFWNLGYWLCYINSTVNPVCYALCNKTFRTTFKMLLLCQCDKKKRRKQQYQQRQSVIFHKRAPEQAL

Regarding `O=C(c1ccc(CNC[C@H](O)c2ccc(O)c3[nH]c(=O)ccc23)cc1)N1CC=C(c2ccc([C@](O)(C(=O)OCC3CCN(Cc4ccccc4)CC3)c3ccccc3)cc2)CC1` [Compound 15E, (1-benzylpiperidin-4-yl)methyl (S)-2-hydroxy-2-(4-(1-(4-((((R)-2-hydroxy-2-(8-hydroxy-2-oxo-1,2-dihydroquinolin-5-yl)ethyl)amino)methyl)benzoyl)-1,2,3,6-tetrahydropyridin-4-yl)phenyl)-2-phenylacetate], the values for the IC50 on Human M3 receptor and at Human β2 adrenoceptor were 0.3 to 3 nM and below 0.3 nM, respectively.
Taken in the same sequence, the figures for `COc1cc(C(=O)NCc2cc(-c3ccc([C@](O)(C(=O)OCC4CCN(Cc5ccccc5)CC4)c4ccccc4)cc3)cs2)ccc1CNC[C@H](O)c1ccc(O)c2[nH]c(=O)ccc12` [Compound 15F, (1-benzylpiperidin-4-yl)methyl (S)-2-hydroxy-2-(4-(5-((4-((((R)-2-hydroxy-2-(8-hydroxy-2-oxo-1,2-dihydroquinolin-5-yl)ethyl)amino)methyl)-3-methoxybenzamido)methyl)thiophen-3-yl)phenyl)-2-phenylacetate] were 0.3 to 3 nM and below 0.3 nM.
With `O=C(NCc1ccc(CCNC[C@H](O)c2ccc(O)c3[nH]c(=O)ccc23)cc1)c1ccc(-c2ccc([C@](O)(C(=O)OCC3CCN(Cc4ccccc4)CC3)c3ccccc3)cc2)s1` [Compound 16, (1-benzylpiperidin-4-yl)methyl (S)-2-hydroxy-2-(4-(5-((4-(2-(((R)-2-hydroxy-2-(8-hydroxy-2-oxo-1,2-dihydroquinolin-5-yl)ethyl)amino)ethyl)benzyl)-carbamoyl)thiophen-2-yl)phenyl)-2-phenylacetate×2 HCOOH], the IC50 at Human M3 receptor is above 3 nM; on Human β2 adrenoceptor it was 0.3 to 3 nM.
